Measured values reported in patent US6043212A, “Recombinant C140 receptor, its agonists and antagonists, and nucleic acids encoding the receptor” (COR Therapeutics, Inc., priority 1995, dated 2000).
Changes are numbered by the printed parent chain. Peptide text beside a SMILES is read from it.

Legend:
[1] = Hypotensive activity: arterial pressure after injection into rat femoral vein; assay type: in vivo; settings: FIG. 7
Description: The C140 agonist SLIGRL (SEQ ID NO: 23) was injected in 0.2 ml buffer at various concentrations into rat femoral vein and the arterial pressure was monitored.

[2] = molecular target: T1, mutant C140 receptor 35Pro (serine-35 replaced with proline) (Mus musculus, UniProt P55086, S39P); assay: 45Ca release by Xenopus oocytes expressing mutant C140 receptor 35Pro; assay type: cell-based; settings: 35Pro receptor
T1 construct: Site-directed mutagenesis was employed to construct mutant receptors in the pSG-5; expressed in transfected cells; host or cells: Xenopus laevis oocytes injected with capped cRNA
T1 sequence (P55086 32-399 S39P limits assumed): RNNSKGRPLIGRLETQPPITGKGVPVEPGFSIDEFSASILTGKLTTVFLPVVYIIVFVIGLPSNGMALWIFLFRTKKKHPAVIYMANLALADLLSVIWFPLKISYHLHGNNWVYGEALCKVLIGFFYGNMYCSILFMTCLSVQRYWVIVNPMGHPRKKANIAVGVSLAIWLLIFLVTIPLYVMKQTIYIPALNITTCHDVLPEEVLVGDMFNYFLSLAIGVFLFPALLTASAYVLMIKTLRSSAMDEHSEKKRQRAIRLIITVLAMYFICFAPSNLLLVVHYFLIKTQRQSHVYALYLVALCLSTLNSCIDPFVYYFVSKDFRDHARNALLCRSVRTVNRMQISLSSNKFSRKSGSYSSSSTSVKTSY
Description: (§1) Both native and mutant C140 receptors were produced in oocytes and activated with a peptide mimicking the new amino-terminus", or by the proteolytic enzyme trypsin (which cleaves the extracellular region). Native receptors were produced by cloning the coding region of the receptor gene, using the polymerase chain reaction, into the expression vector pSG-5 (Green, S. et al., Nucleic Acid Res (1988) 16:369). The orientation and integrity of the cloned coding region was verified by determining the nucleotide sequence with the Sanger chain-termination method. Site-directed mutagenesis was employed to construct mutant receptors in the pSG-5. […]
(§2) Oocytes from Xenopus laevis were harvested and prepared using published techniques (Coleman, A., in Hames, B. D., and Higgins, S. J., eds, Transcription and Translation: A Practical Approach, IRL Press, pp. 271-302; Williams, J. A., et al. Proc Natl Acad Sci USA (1988) 85:4939-4943]. To remove follicular cells, oocytes were incubated for 1.5 h with shaking in calcium-free Barth's containing 2 mg/ml each of collagenase 1A and hyaluronidase 1S. The oocytes were then washed five times in regular Barth's and incubated at 18° C. in Barth's medium containing 100 U/ml penicillin, 100 μg/ml streptomycin, and 2.5 mM sodium pyruvate. […] The harvested medium was analyzed by scintillation counting. […]

[3] = molecular target: T2, mutant C140 receptor 35Arg (serine-35 replaced with arginine) (Mus musculus, UniProt P55086, S39R); assay: 45Ca release by Xenopus oocytes expressing mutant C140 receptor 35Arg; assay type: cell-based; settings: 35Arg receptor
T2 construct: Site-directed mutagenesis was employed to construct mutant receptors in the pSG-5; expressed in transfected cells; host or cells: Xenopus laevis oocytes injected with capped cRNA
T2 sequence (P55086 32-399 S39R limits assumed): T1 sequence (P55086 32-399 S39P limits assumed) with P8R
Description: as §1, §2

[4] = molecular target: T3, C140 receptor (Mus musculus, UniProt P55086); assay: Activation of frog oocytes injected with C140 receptor cRNA by proteases; assay type: cell-based; settings: FIG. 9c
T3 construct: expressed in transfected cells; host or cells: frog oocytes injected with C140 receptor cRNA
T3 sequence (P55086 26-399): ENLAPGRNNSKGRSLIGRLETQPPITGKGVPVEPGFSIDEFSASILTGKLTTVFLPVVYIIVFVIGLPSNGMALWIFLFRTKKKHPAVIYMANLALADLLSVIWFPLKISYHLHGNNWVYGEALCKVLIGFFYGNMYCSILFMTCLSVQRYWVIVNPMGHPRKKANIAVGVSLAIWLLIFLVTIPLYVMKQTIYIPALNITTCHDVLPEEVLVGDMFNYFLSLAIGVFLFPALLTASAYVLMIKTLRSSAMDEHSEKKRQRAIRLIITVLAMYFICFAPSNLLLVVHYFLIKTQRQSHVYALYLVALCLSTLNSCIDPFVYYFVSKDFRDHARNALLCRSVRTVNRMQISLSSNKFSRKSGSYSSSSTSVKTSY
Description: FIGS. 9a and 9b show the ability of plasmin and kallikrein respectively to activate oocytes injected with C140 cRNA (open circles) or water (crosses) as control.

[5] = peptide at 100 μM, same oocytes after trypsin stimulation
[6] = trypsin at 300 pM, increase compared to water-injected oocytes

Row | Molecule | Effect on arterial blood pressure ([1]; 0.2 ml buffer at 0.1 mM into femoral vein) | Effect on arterial blood pressure ([1]; 0.2 ml buffer at 1 mM into femoral vein) | Fold increase in 45Ca [2, 5] | Fold increase in 45Ca [3, 5] | Activation of oocytes injected with C140 receptor cRNA versus substance K receptor cRNA [4] | Fold increase in 45Ca [2, 6] | Fold increase in 45Ca [3, 6]
1 | CC[C@H](C)[C@H](NC(=O)[C@H](CC(C)C)NC(=O)[C@@H](N)CO)C(=O)NCC(=O)N[C@@H](CCCNC(=N)N)C(=O)N[C@@H](CC(C)C)C(=O)O [SLIGRL] (H-SLIGRL-OH) | appreciable decrease in blood pressure | larger decreases | 23 fold | 15 fold | – | – | –
2 | trypsin | – | – | – | – | differential effect | 0 fold | 0 fold
